The source of these data is US20110318738A1, “IDENTIFICATION AND REGULATION OF A NOVEL DNA DEMETHYLASE SYSTEM” (University of Utah Research Foundation, priority 2008, published 2011).

One data set deals with zebrafish embryos. In words: Whole mount in situ hybridization for neuronal markers in morpholino-injected embryos. The data set is classed as in vivo. The note with it: morpholino injected at single-cell stage, 24 hpf; for Sox-2: embryos showing positive staining for the marker: Control Mo 97%; for Neurogenin-1: embryos showing positive staining for the marker: Control Mo 100%. On the procedure: Wild-type zebrafish (Tuebingen strain) were maintained in a 14 hr:10 hr light:dark cycle in a Z-Mod at 28.5° C. Embryos were injected at single-cell stage and then grown in a 28.5° C. incubator. Morpholinos were obtained from Gene-tools LLC Ltd. For these experiments, morpholino sequences were designed against the following:
Whole mount in situ hybridization was performed as described earlier in Rai et al., 2006 with digoxigenin (Roche) labeled probes against neurogenin-1 and sox-2.
To address whether AID/Apobec enzymes, Gadd45, or zebrafish Mbd4 have a role in the control of DNA methylation during normal zebrafish development, a subset of the enzyme family members were knocked down (by morpholino injection) and their impact on development was examined. Either AID, Gadd45α, or Mbd4 knockdown caused the loss of neurons at 24 hpf, shown by the absence of pro-neuronal markers such as neurogenin-1 or sox-2. […] As neurons form in mice lacking Mbd4 (or AID), zebrafish may rely more on these proteins for neurogenesis than do mice, or alternatively, neurogenesis in zebrafish may be more sensitive to misregulation of DNA methylation levels. […] The percentage listed depicts embryos showing positive staining for the marker indicated.

For another data set, the system named is HT29 and DLD1. Nature of the data set: Quantitative RT-PCR for AID, MBD4 and GADD45α in RA responsive colon carcinoma cell lines. The data set is classed as cell-based. To be noted: human colon cancer cell lines, ATRA 5 μM each day for two days; FIG. 11C.
Data set [1] concerns apc^mcr zebrafish embryos. In words: Whole mount in situ hybridization in apc mutant embryos. To be noted: for gadd45α expression (% of embryos) / aid expression (% of embryos): apc^wt + DMSO 94%; for gadd45α expression (% of embryos): apc^mcr + DMSO 9%; for aid expression (% of embryos): apc^mcr + DMSO 17%; for mbd4 expression (% of embryos): apc^wt + DMSO 95%, apc^mcr + DMSO 3%; for irbp (% of embryos): apc^sib 96%.

The subject of the next data set is apc mutants (72 hpf). In words: MeDIP-qPCR for various genes in apc mutants. To be noted: apc mutant embryos treated with RA; FIG. 11D. The data set is classed as in vivo, zebrafish. On the procedure: (§1) Expression of genes are first normalized to 28S, and then to the control embryo mRNA/28S ratio, valued as 1. […] In panels A-C, expression of genes are normalized first to 28S (A-B) or 18S (C) and then to the control sample values as 1.
This procedure was described in Weber et al., 2007. Briefly, Dynabeads (conjugated with sheep anti-mouse secondary antibody, Invitrogen) were incubated with 10 μg of 5MeC antibody (Eurogentec) for 2 hrs, washed, and then incubated with 4 μg of sonicated DNA (300 bp-1000 bp fragments) overnight Immunoprecipitated DNA was amplified using for whole genome amplification kit (Sigma Aldrich). Following amplification, 2 μg of amplified DNA was labeled with Cy5, and 2 μg of input DNA was labeled with Cy3 (Bio labs). Samples were competitively hybridized to 244K oligonucleotide promoter arrays (Agilent Inc).

Data set [2] concerns apc^mcr zebrafish embryos. Nature of the data set: Quantitative RT-PCR in apc mutant embryos after drug treatment. The data set is classed as in vivo. To be noted: for expression of aid, gadd45α and mbd4: all-trans retinoic acid 1 μM or NS-398 10 μM, FIG. 11A. Here is the method: Quantitative RT-PCR primers for amplification of zebrafish rdh1l (Nadauld et al., 2005), human DHRS9 (Jette et al., 2004) 28S rRNA (Eisinger et al., 2006), and h18S rRNA (Delaunay et al., 2000) were described previously, and are (hereby incorporated by reference in its entirety into this application). A template-free negative control was included in each experiment.
(§2) RNA from embryos or human adenoma tissues was isolated using Trizol (Invitrogen). cDNA library was prepared using Superscript III kit (Invitrogen). RT-PCR was performed on a Roche light cycler.

The subject of the next data set is wild type embryos. In words: Quantitative RT-PCR in RA deficiency models. The data set is classed as in vivo, zebrafish. To be noted: DEAB treated wild type embryos; FIG. 11B. Here is the method: as §1, §2
Data set [3] relates to DLD1, SW480, and HT29 cells. Nature of the data set: Quantitative PCR measuring DHRS9 (RDHL) expression in colon cancer cell lines. The data set is classed as cell-based, human. The note with it: pargyline 3 mM, FIG. 14B.
Setting [4] is: apc^mcr embryos, Table 6, apc^mcr 0%.
[5] abbreviates: apc^mcr embryos, Table 6, apc^sib 100%, apc^mcr 0%.

As for “Gadd45α Mo: morpholino against Gadd45α, 5′-ATATAAAAACATACCTTTCCGTTGC-3′ (SEQ ID No. 4) (all phosphorodiamidate morpholino (PMO))”, in the data set with zebrafish embryos, the “Sox-2: embryos showing positive staining for the marker” value is 33% (n = 48) and the “Neurogenin-1: embryos showing positive staining for the marker” value was 11% (n = 52).

`CC1=C(/C=C/C(C)=C/C=C/C(C)=C/C(=O)O)C(C)(C)CCC1` [ATRA, all-trans retinoic acid]: in the data set on HT29 and DLD1, the “expression of the demethylase genes” value was “suppressed expression”. In data set [1] (apc^mcr embryos, Table 4), the “gadd45α expression (% of embryos)” value amounted to 91%, the “aid expression (% of embryos)” value is 85% and the “mbd4 expression (% of embryos)” value was 65%. Moreover, the “dnmt1 expression (% of embryos)” value in data set [1] (apc^mcr embryos, Table 4, apc^wt + DMSO 97%, apc^mcr + DMSO 11%) stood at 89%. Moreover, in data set [1] (apc^mcr mutant, rdh1l morphant or nls mutant zebrafish treated with RA), the “expression of aldh1a2” value is “decreased the expression”. Further, the “DNA methylation on the panel of genes implicated in intestinal differentiation and proliferation” value with apc mutants (72 hpf) is “reversed the loss of DNA methylation”. The Cebpβ expression result in data set [2] (APC mutants, RA treatment, FIG. 12A) is reported as “down regulated”. Moreover, the dnmt1 expression entry in data set [2] (apc mutants, RA treatment) is recorded as “did not restore”. In addition, the “expression of aid, gadd45α and mbd4” value in data set [2] (apc mutants) is recorded as “greatly reduced”. Further, the “expression of pou5f1” value in data set [2] (apc^mcr mutant embryos, ATRA 1 μM, FIG. 12A) was “reduced the expression”.

In the case of “Pou5f1 Mo: morpholino 5′-CGCTCTCTCCGTCATCTTTCCGCTA-3′ (SEQ ID NO. 14) (all phosphorodiamidate morpholino (PMO))”, in data set [1] (apc^mcr embryos, Table 4), the “gadd45α expression (% of embryos)” value stood at 83%, the “aid expression (% of embryos)” value came out at 81% and the “mbd4 expression (% of embryos)” value came to 67%.

`CCN(CC)c1ccc(C=O)cc1` [DEAB, 4-(diethylamino) benzaldehyde]: the “expression of the demethylase genes” value in the data set on wild type embryos is on record as “increased expression”.

As to “Mbd4 Mo: morpholino against zMbd4, 5′-AGAGAGAAACACACCTGCTCGCTGC-3′ (SEQ ID No. 8) (all phosphorodiamidate morpholino (PMO))”, in the data set with zebrafish embryos, the “Sox-2: embryos showing positive staining for the marker” value was 15% (n = 53) and the “Neurogenin-1: embryos showing positive staining for the marker” value is listed as 14% (n = 43).

Take “Lsd1 mo: morpholino 5′-GGTCTGACTTCTTATTGGACAACAT-3′ (SEQ ID NO. 18) (all phosphorodiamidate morpholino (PMO))”: the “irbp (% of embryos)” value in data set [1] (setting [4]) is given as 8%. The “fabp2 (% of embryos)” value in data set [1] (setting [5]) is reported as 83%.

For `C#CCN(C)Cc1ccccc1` [pargyline], in data set [1] (apc^mcr zebrafish embryos, pargyline 3 mM), the “expression of fabp2” value was “rescued expression”. Besides, in data set [3], the DHRS9 expression result is on record as “upregulated”. Moreover, the “expression of rdh1l” value in data set [2] (apc^mcr zebrafish embryos, pargyline 3 mM, FIG. 15A) is “rescued expression”.

As for “Groucho2 mo: morpholino 5′-GCCCTGTGGATACATCTTGAAATGT-3′ (SEQ ID NO. 17) (all phosphorodiamidate morpholino (PMO))”, in data set [1] (setting [4]), the “irbp (% of embryos)” value was determined as 5%. In data set [1] (setting [5]), the “fabp2 (% of embryos)” value is reported as 95%, the “rdh1l (% of embryos)” value stood at 83% and the “trypsin (% of embryos)” value came out at 86%.

Take “Corest mo: morpholino 5′-CCTTCTCTAACATTGCGGGCATCTT-3′ (SEQ ID NO. 19) (all phosphorodiamidate morpholino (PMO))”: the “irbp (% of embryos)” value in data set [1] (setting [4]) is given as 11%. In addition, in data set [1] (setting [5]), the “fabp2 (% of embryos)” value is reported as 79%.

Take “Pitx2 Mo: morpholino 5′-TTTATCAAACTTACTCGGACTCTGG-3′ (SEQ ID NO. 15) (all phosphorodiamidate morpholino (PMO))”: the “cyclinD1 (% of embryos)” value in data set [1] (apc^mcr embryos, Table 5, apc^wt + Control Mo 96%, mutant + Control Mo 17%) was 90%. In addition, the “Pcna (% of embryos)” value in data set [1] (apc^mcr embryos, Table 5, apc^wt + Control Mo 97%, mutant + Control Mo 10%) came to 85%.

On to `CS(=O)(=O)Nc1ccc([N+](=O)[O-])cc1OC1CCCCC1` [Cox-2 inh, NS-398], for which, in data set [1] (apc^mcr embryos, Table 4), the “gadd45α expression (% of embryos)” value is reported as 8%, the “aid expression (% of embryos)” value turned out to be 20% and the “mbd4 expression (% of embryos)” value is listed as 9%%. Besides, in data set [2] (apc mutants), the “expression of aid, gadd45α and mbd4” value was “little effect”.

Regarding “AID Mo: morpholino against AID, 5′-GTTTTGTTTTCGCTTACCTGTCCAG-3′ (SEQ ID No. 1) (all phosphorodiamidate morpholino (PMO))”, in the data set with zebrafish embryos, the “Sox-2: embryos showing positive staining for the marker” value was 13% (n = 38) and the “Neurogenin-1: embryos showing positive staining for the marker” value is 12% (n = 50).

Consider `CC1=C(/C=C/C(C)=C/C=C/C(C)=C/C=O)C(C)(C)CCC1` [RAL], for which the “intestinal differentiation marked by fabp2 expression” value in data set [1] (apc^mcr embryos treated with exogenous RAL) was “partially restored”. In addition, the “fabp2 (% of embryos)” value in data set [1] (apc^mcr embryos, Table 5, apc^wt + Control Mo 99%, mutant + Control Mo 3%) is given as 59%.
